The nature of series [1]: Pharmacokinetic study in mice (oral administration). The class given is in vivo. Particulars: mouse, serum, 25 mg/kg, male ICR mice, suspension in 0.5% methylcellulose 2.5 mg/mL at 10 mL/kg, 12 hours after administration, HPLC, read-out: serum concentration of the test compound. As for the experimental part:
The compounds of Examples 2, 4, 5, 12 and 16 were used as test compounds.
A test compound suspended in 0.5% methylcellulose (2.5 mg/mL) was orally administered at 10 mL/kg to male ICR mice (6 week-old, three animals in a group). At 12 hours after the administration, the blood of the mice was collected, and the concentrations of the test compound in the serum were measured by HPLC.

Series [2] deals with HIV-1 (JRCSF). The series can be described thus: Anti-HIV activity (Test Example 1-1): MaRBLE cells infected with HIV-1 (JRCSF), compound added 2 h after seeding, luciferase readout after 7 days. The class given is cell-based. As to conditions: Human immunodeficiency virus 1, 168 h, 7 days culture, firefly luciferase, virus growth rate, 4 parameter Logistic Model (XLfit 4). On the procedure: (§1) This example was carried out by reference to Journal of Clinical Microbiology, 2007, Vol. 45, pages 477 to 487.
(§2) An anti-HIV activity was evaluated using MaRBLE cells obtained by transfection of HPB-M(a) derived from human T-lymphocytes with a luciferase gene of which expressions were regulated by HIV-1 LTR and a CCR5 gene etc.
The MaRBLE cells were suspended in RPMI1640 containing 10% FCS (fetal calf serum) and penicillin/streptomycin. After infected with HIV-1 (JRCSF), the cells were seeded on a 96-well plate (1×10^5 cells/well). As a control group, the same number of uninfected cells were seeded.
After incubating the plate under the condition of 37° C. and 5% CO2 for 2 hours, a fresh culture medium or a culture medium containing an appropriately diluted test compound was added to each well.
After further culturing at 37° C. under 5% CO2 for 7 days, an intracellular luciferase activity was measured using Dual-Glo Luciferase assay system (Promega).
(§3) The virus growth rate was calculated by the following equation.
(§4) Virus growth rate (%)=(A/B)×100
(§5) A=(Firefly luciferase activity in the well with the compound)−(Firefly luciferase activity of uninfected cells)
(§6) B=(Firefly luciferase activity in the well without the compound)−(Firefly luciferase activity of uninfected cells)
The IC50 of the compound was calculated by applying virus growth rates of various concentrations to 4 parameter Logistic Model of curve-fitting software XLfit 4.

Series [3] relates to HIV-1 (JRCSF). Briefly: Anti-HIV activity (Test Example 1-2): infected MaRBLE cells seeded on plate containing drug solution, luciferase readout after 7 days. As to conditions: Human immunodeficiency virus 1, 168 h, MaRBLE cells infected with HIV-1 (JRCSF), 7 days culture, firefly luciferase, FORECAST linear regression (Excel). The format is cell-based. On the procedure:
as §1, §2
A plate containing a drug solution was made by dispensing a fresh culture medium or an appropriately diluted test compound to a 96-well plate.
MaRBLE cells were suspended in RPMI1640 containing 10% FCS (fetal calf serum) and penicillin/streptomycin. After infected with HIV-1 (JRCSF), the cells were seeded on the above-described plate containing a drug solution ([…] cells/well). As a control group, the same number of uninfected cells were seeded.
After culturing at 37° C. under 5% CO2 for 7 days, an intracellular luciferase activity was measured using Dual-Glo Luciferase assay system (Promega).
as §3, §4, §5, §6
The IC50 of the compound was calculated by plotting the concentration with the logarithm and by plotting the virus growth rate with a real number, using the FORECAST function (linear regression technique) of Microsoft Office Excel 2003.

Experimental findings from patent US20130005760A1, “HETEROCYCLIC COMPOUND HAVING AZOLE GROUP” (Toyama Chemical Co., Ltd., priority 2010, published 2013) are described below.

Bounds are passed on as bounds.

Take `Cc1noc(C)c1-c1ccc2c(=O)cc(C)n(Cc3ccccc3N)c2c1` [Example 5, 1-(2-aminobenzyl)-7-(3,5-dimethylisoxazol-4-yl)-2-methyl-1,4-dihydro-4-oxoquinoline]: the concentration at 12 h in series [1] is ≥ 500 ng/mL.

A word on the IC50: it is the concentration at which inhibition is half-maximal. A lower IC50 goes with higher potency. `Cc1noc(C)c1-c1ccc2c(=O)cc(C)n(Cc3ccccc3N)c2c1` [Example 5-2, 1-(2-aminobenzyl)-7-(3,5-dimethylisoxazol-4-yl)-2-methyl-1,4-dihydro-4-oxoquinoline.½ pinacol adduct] yielded an IC50 in the series with HIV-1 (JRCSF) [2] of 0.27 nM.

On to `Cc1noc(C)c1-c1ccc2c(=O)cc(CO)n(Cc3ccccc3N)c2c1` [Example 7, 1-(2-aminobenzyl)-7-(3,5-dimethylisoxazol-4-yl)-2-hydroxymethyl-1,4-dihydro-4-oxoquinoline], for which the IC50 in the series on HIV-1 (JRCSF) [2] was 0.2 nM.

Regarding `Cc1noc(C)c1-c1ccc2c(=O)cc(N)n(-c3ccc(F)cc3F)c2c1` [Example 10, 2-amino-1-(2,4-difluorophenyl)-7-(3,5-dimethylisoxazol-4-yl)-1,4-dihydro-4-oxoquinoline], in the series with HIV-1 (JRCSF) [2], the IC50 amounted to 2.8 nM.

As for `Cc1noc(C)c1-c1ccc2c(=O)cc(C)n(Cc3cccc(F)c3N)c2c1` [Example 11, 1-(2-amino-3-fluorobenzyl)-7-(3,5-dimethylisoxazol-4-yl)-2-methyl-1,4-dihydro-4-oxoquinoline], the IC50 with HIV-1 (JRCSF) [2] came to 0.62 nM.

Regarding `Cc1noc(C)c1-c1cc2c(cc1F)c(=O)cc(C)n2Cc1ccccc1N` [Example 13, 1-(2-aminobenzyl)-7-(3,5-dimethylisoxazol-4-yl)-6-fluoro-2-methyl-1,4-dihydro-4-oxoquinoline], the IC50 in the series with HIV-1 (JRCSF) [3] was 2.9 nM. In other words, the single-digit nanomolar range.

On to `Cc1noc(C)c1-c1ccc2c(=O)cc(C)n(Cc3cc(F)cc(F)c3N)c2c1` [Example 14, 1-(2-amino-3,5-difluorobenzyl)-7-(3,5-dimethylisoxazol-4-yl)-2-methyl-1,4-dihydro-4-oxoquinoline], for which the IC50 with HIV-1 (JRCSF) [3] was 0.55 nM.

As for `CCc1cc(=O)c2ccc(-c3c(C)noc3C)cc2n1-c1cc(N)c(F)cc1F` [Example 16, 1-(5-amino-2,4-difluorophenyl)-7-(3,5-dimethylisoxazol-4-yl)-2-ethyl-1,4-dihydro-4-oxoquinoline], in the series on HIV-1 (JRCSF) [2], the IC50 is 7.2 nM. In addition, the concentration at 12 h in series [1] was ≥ 500 ng/mL.

In the series with HIV-1 (JRCSF) [2], `CCc1cc(=O)c2ccc(-c3c(C)noc3C)cc2n1Cc1cccc(F)c1N` [Example 17, 1-(2-amino-3-fluorobenzyl)-7-(3,5-dimethylisoxazol-4-yl)-2-ethyl-1,4-dihydro-4-oxoquinoline] registered an IC50 of 0.26 nM.

`Cc1noc(C)c1-c1ccc2c(=O)cc(C)n(Cc3cccnc3N)c2c1` [Example 18, 1-((2-aminopyridin-3-yl)methyl)-7-(3,5-dimethylisoxazol-4-yl)-2-methyl-1,4-dihydro-4-oxoquinoline] had an IC50 with HIV-1 (JRCSF) [2] of 3.5 nM.

With `Cc1noc(C)c1-c1ccc2c(=O)cc(CO)n(-c3cc(N)c(F)cc3F)c2c1` [Example 19, 1-(5-amino-2,4-difluorophenyl)-7-(3,5-dimethylisoxazol-4-yl)-2-(hydroxymethyl)-1,4-dihydro-4-oxoquinoline], in the series with HIV-1 (JRCSF) [2], the IC50 is 1.7 nM.

`Cc1noc(C)c1-c1ccc2c(=O)cc(N)n(-c3cc(N)c(F)cc3F)c2c1` [Example 20, 2-amino-1-(5-amino-2,4-difluorophenyl)-7-(3,5-dimethylisoxazol-4-yl)-1,4-dihydro-4-oxoquinoline] came in with an IC50 in the series on HIV-1 (JRCSF) [2] of 2.6 nM.

As to `Cc1noc(C)c1-c1ccc2c(=O)cc(CO)n(-c3ccc(F)cc3F)c2c1` [Example 22, 1-(2,4-difluorophenyl)-7-(3,5-dimethylisoxazol-4-yl)-2-hydroxymethyl-1,4-dihydro-4-oxoquinoline], 0.6 nM corresponded to half-maximal inhibition in the series with HIV-1 (JRCSF) [2] (IC50).

Take `Cc1noc(C)c1-c1ccc2c(=O)cc(CO)n(-c3cc(N)c(F)cc3F)c2n1` [Example 24, 1-(5-amino-2,4-difluorophenyl)-7-(3,5-dimethylisoxazol-4-yl)-2-hydroxymethyl-1,4-dihydro-4-oxo-1,8-naphthyridine]: the IC50 with HIV-1 (JRCSF) [2] stood at 0.54 nM.

For the molecule `Cc1noc(C)c1-c1ccc2c(=O)cc(C)n(-c3ccc(F)cc3F)c2n1` [Example 25, 1-(2,4-difluorophenyl)-7-(3,5-dimethylisoxazol-4-yl)-2-methyl-1,4-dihydro-4-oxo-1,8-naphthyridine], the IC50 with HIV-1 (JRCSF) [2] was 0.64 nM. This IC50 and that of the molecule before are within 1.5-fold of each other.

In the series with HIV-1 (JRCSF) [2], `Cc1noc(C)c1-c1ccc2c(=O)cc(CO)n(-c3ccc(F)cc3F)c2n1` [Example 26, 1-(2,4-difluorophenyl)-7-(3,5-dimethylisoxazol-4-yl)-2-hydroxymethyl-1,4-dihydro-4-oxo-1,8-naphthyridine] came in with an IC50 of 0.23 nM. Compared with the last molecule, the IC50 is about 2.8-fold lower.

For `Cc1noc(C)c1-c1ccc2c(=O)cc(CN)n(-c3ccc(F)cc3F)c2n1` [Example 27, 2-(aminomethyl)-1-(2,4-difluorophenyl)-7-(3,5-dimethylisoxazol-4-yl)-1,4-dihydro-4-oxo-1,8-naphthyridine], in the series on HIV-1 (JRCSF) [2], the IC50 was determined as 0.3 nM.

`Cc1noc(C)c1-c1ccc2c(=O)cc(N)n(-c3ccc(F)cc3F)c2n1` [Example 28, 2-amino-1-(2,4-difluorophenyl)-7-(3,5-dimethylisoxazol-4-yl)-1,4-dihydro-4-oxo-1,8-naphthyridine] registered an IC50 with HIV-1 (JRCSF) [2] of 0.3 nM.

Regarding `Cc1noc(C)c1-c1ccc2c(=O)cc(C)n(Cc3ccccc3N)c2n1` [Example 29, 1-(2-aminobenzyl)-7-(3,5-dimethylisoxazol-4-yl)-2-methyl-1,4-dihydro-4-oxo-1,8-naphthyridine], in the series on HIV-1 (JRCSF) [2], the IC50 worked out at 1.2 nM.

In the series with HIV-1 (JRCSF) [2], `Cc1noc(C)c1-c1ccc2c(=O)cc(C)n(-c3cc(N)c(S(C)(=O)=O)cc3F)c2c1` [Example 31, 1-(5-amino-2-fluoro-4-(methylsulfonyl)phenyl)-7-(3,5-dimethylisoxazol-4-yl)-2-methyl-1,4-dihydro-4-oxoquinoline] gave an IC50 of 1.8 nM.

`Cc1noc(C)c1-c1ccc2c(=O)cc(C)n(-c3cc(N)c(S(C)(=O)=O)cc3F)c2n1` [Example 33, 1-(5-amino-2-fluoro-4-(methylsulfonyl)phenyl)-7-(3,5-dimethylisoxazol-4-yl)-2-methyl-1,4-dihydro-4-oxo-1,8-naphthyridine] registered an IC50 in the series with HIV-1 (JRCSF) [3] of 0.87 nM.

For the molecule `Cc1noc(C)c1-c1ccc2c(=O)cc(C)n(-c3cc(N)c(Cl)cc3F)c2n1` [Example 34, 1-(5-amino-4-chloro-2-fluorophenyl)-7-(3,5-dimethylisoxazol-4-yl)-2-methyl-1,4-dihydro-4-oxo-1,8-naphthyridine], in the series with HIV-1 (JRCSF) [2], 0.48 nM corresponded to half-maximal inhibition (IC50). This lies in the sub-nanomolar range.

As to `Cc1noc(C)c1-c1ccc2c(=O)cc(C)n(Cc3ccc(Cl)c(F)c3N)c2c1` [Example 35, 1-(2-amino-4-chloro-3-fluorobenzyl)-7-(3,5-dimethylisoxazol-4-yl)-2-methyl-1,4-dihydro-4-oxoquinoline], the IC50 with HIV-1 (JRCSF) [3] is 2.6 nM. This counts as single-digit nanomolar.
